Source: ChEMBL document CHEMBL5360526, “Discovery of BET specific bromodomain inhibitors with a novel scaffold” (Bioorg Med Chem, 2022)
Each block holds one compound with its values, some of them ahead of it.

Tests used:
[1] = molecular target: T1, Bromodomain-containing protein 4 (Homo sapiens, UniProt O60885); assay: Inhibition of N-terminal GST-tagged/C-terminal 6His-tagged BRD4 BD1 (47 to 170 residues) (unknown origin) expressed in Escherichia coli BL21 (DE3) using SGRGK(Ac)GGK(Ac)GLGK(Ac) GGAK(Ac)RHRK-biotinylated peptide as substrate incubated for 60 mins by alpha screen assay
[2] = molecular target: T1, Bromodomain-containing protein 4; assay: Inhibition of BRD4 BD2 (unknown origin) using SGRGK(Ac)GGK(Ac)GLGK(Ac) GGAK(Ac)RHRK-biotinylated peptide as substrate incubated for 60 mins by alpha screen assay
[3] = molecular target: Histone acetyltransferase KAT2B (Homo sapiens) (UniProt Q92831); assay: Inhibition of PCAF (unknown origin) assessed as remaining activity
[4] = molecular target: Protein polybromo-1 (Homo sapiens) (UniProt Q86U86); assay: Inhibition of PBRM1 BD5 (unknown origin) assessed as remaining activity
Sequence of Protein polybromo-1 (Homo sapiens) (Q86U86 whole entry, the tested form may be a part): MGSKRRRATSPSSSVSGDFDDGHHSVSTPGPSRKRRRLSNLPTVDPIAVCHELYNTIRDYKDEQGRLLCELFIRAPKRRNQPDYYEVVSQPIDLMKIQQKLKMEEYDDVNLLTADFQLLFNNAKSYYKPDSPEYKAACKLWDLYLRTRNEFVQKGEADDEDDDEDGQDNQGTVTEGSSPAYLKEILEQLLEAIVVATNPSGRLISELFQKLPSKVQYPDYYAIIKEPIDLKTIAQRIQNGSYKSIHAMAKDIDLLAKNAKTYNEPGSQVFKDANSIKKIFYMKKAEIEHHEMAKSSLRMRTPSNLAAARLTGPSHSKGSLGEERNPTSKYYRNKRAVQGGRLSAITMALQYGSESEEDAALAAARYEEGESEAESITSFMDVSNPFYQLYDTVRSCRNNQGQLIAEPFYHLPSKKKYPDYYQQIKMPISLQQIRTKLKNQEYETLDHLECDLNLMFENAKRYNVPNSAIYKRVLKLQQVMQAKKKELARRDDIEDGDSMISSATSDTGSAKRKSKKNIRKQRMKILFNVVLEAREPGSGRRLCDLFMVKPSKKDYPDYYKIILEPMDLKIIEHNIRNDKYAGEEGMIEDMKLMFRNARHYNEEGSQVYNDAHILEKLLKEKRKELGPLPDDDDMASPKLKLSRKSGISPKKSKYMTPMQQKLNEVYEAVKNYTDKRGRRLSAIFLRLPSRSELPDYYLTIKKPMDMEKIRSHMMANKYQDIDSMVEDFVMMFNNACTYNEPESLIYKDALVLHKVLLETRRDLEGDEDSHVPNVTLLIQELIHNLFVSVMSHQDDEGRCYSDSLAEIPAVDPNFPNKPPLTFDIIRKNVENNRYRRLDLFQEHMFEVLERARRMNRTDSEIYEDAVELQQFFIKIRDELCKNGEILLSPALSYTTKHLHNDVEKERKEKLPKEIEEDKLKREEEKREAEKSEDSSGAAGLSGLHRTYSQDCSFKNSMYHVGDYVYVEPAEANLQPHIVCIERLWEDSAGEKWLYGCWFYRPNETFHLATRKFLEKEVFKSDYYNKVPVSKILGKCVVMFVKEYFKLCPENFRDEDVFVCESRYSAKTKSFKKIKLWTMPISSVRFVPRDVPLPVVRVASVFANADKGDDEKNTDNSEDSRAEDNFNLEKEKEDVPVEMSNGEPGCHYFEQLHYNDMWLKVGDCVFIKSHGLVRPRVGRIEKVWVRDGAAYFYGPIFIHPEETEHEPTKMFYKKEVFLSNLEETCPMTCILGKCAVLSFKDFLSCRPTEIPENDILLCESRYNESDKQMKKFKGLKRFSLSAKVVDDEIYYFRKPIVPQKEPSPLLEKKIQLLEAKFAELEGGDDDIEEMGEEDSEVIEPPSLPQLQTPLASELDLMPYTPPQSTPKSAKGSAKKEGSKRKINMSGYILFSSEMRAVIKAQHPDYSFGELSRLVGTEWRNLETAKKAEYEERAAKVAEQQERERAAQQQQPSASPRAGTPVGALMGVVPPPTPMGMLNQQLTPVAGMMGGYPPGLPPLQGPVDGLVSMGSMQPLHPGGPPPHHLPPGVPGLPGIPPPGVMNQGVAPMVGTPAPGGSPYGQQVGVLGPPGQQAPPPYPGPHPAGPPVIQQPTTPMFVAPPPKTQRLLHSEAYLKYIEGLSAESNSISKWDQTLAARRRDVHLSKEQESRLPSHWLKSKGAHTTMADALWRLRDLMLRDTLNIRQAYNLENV

[5] = molecular target: Protein polybromo-1 (Homo sapiens) (UniProt Q86U86); assay: Inhibition of PBRM1 BD2 (unknown origin) assessed as remaining activity
[6] = molecular target: ATPase family AAA domain-containing protein 2 (Homo sapiens) (UniProt Q6PL18); assay: Inhibition of ATAD2A (unknown origin) assessed as remaining activity
[7] = molecular target: ATPase family AAA domain-containing protein 2B (Homo sapiens) (UniProt Q9ULI0); assay: Inhibition of ATAD2B (unknown origin) assessed as remaining activity
[8] = molecular target: Bromodomain adjacent to zinc finger domain protein 2A (Homo sapiens) (UniProt Q9UIF9); assay: Inhibition of BAZ2A (unknown origin) assessed as remaining activity
[9] = molecular target: Bromodomain adjacent to zinc finger domain protein 2B (Homo sapiens) (UniProt Q9UIF8); assay: Inhibition of BAZ2B (unknown origin) assessed as remaining activity
[10] = molecular target: Bromodomain-containing protein 1 (Homo sapiens) (UniProt O95696); assay: Inhibition of BRD1 (unknown origin) assessed as remaining activity
[11] = molecular target: Bromodomain-containing protein 2 (Homo sapiens) (UniProt P25440); assay: Inhibition of BRD2 BD1 (unknown origin) assessed as remaining activity
Sequence of Bromodomain-containing protein 2 (Homo sapiens) (P25440 whole entry, looked up): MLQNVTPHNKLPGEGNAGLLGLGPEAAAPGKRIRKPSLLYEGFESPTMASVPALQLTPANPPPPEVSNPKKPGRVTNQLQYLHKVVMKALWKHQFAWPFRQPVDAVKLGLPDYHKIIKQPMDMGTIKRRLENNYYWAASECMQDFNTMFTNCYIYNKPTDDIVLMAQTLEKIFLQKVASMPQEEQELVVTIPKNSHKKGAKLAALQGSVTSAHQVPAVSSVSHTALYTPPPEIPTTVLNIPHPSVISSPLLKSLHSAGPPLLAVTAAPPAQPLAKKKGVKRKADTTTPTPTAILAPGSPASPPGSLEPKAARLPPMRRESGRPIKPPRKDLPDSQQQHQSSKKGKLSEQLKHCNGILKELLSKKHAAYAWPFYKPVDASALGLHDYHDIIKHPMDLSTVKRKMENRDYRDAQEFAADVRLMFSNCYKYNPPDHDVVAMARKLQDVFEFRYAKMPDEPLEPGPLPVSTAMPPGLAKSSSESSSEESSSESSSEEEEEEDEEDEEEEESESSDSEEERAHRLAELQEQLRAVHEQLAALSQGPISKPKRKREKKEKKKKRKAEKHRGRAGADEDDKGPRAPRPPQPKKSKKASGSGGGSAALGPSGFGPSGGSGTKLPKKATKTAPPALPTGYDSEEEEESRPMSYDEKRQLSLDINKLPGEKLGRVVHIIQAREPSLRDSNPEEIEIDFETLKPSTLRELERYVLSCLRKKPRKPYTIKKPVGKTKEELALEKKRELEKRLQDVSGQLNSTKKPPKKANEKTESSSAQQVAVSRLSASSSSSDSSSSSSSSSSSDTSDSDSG

[12] = molecular target: Bromodomain-containing protein 2 (Homo sapiens) (UniProt P25440); assay: Inhibition of BRD2 BD2 (unknown origin) assessed as remaining activity
[13] = molecular target: Bromodomain-containing protein 3 (Homo sapiens) (UniProt Q15059); assay: Inhibition of BRD3 BD1 (unknown origin) assessed as remaining activity
Sequence of Bromodomain-containing protein 3 (Homo sapiens) (Q15059 2-726 limits assumed): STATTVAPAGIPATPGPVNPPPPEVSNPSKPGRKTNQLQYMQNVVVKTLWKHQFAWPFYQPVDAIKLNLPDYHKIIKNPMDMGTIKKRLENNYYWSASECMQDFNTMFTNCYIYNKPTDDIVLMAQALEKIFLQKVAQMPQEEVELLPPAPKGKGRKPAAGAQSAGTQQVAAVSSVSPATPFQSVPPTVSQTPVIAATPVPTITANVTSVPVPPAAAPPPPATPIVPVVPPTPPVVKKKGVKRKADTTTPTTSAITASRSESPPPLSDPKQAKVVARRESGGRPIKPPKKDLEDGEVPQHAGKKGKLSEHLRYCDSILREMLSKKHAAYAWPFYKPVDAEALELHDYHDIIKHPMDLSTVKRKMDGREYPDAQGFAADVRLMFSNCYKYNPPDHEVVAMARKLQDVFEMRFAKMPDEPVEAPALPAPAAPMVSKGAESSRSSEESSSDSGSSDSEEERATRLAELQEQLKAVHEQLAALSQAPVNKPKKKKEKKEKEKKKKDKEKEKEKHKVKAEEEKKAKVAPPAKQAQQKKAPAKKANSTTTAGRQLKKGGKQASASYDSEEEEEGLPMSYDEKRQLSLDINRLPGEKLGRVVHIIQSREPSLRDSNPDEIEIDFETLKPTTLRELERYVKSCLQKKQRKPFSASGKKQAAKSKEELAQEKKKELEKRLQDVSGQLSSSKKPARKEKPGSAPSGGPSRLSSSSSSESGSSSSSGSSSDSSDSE

[14] = molecular target: Bromodomain-containing protein 3 (Homo sapiens) (UniProt Q15059); assay: Inhibition of BRD3 BD2 (unknown origin) assessed as remaining activity
[15] = molecular target: T1, Bromodomain-containing protein 4; assay: Inhibition of BRD4 BD1 (unknown origin) assessed as remaining activity
[16] = molecular target: T1, Bromodomain-containing protein 4; assay: Inhibition of BRD4 BD2 (unknown origin) assessed as remaining activity
[17] = molecular target: SWI/SNF-related matrix-associated actin-dependent regulator of chromatin subfamily A member 2 (Homo sapiens) (UniProt P51531); assay: Inhibition of SMARCA2 (unknown origin) assessed as remaining activity
[18] = molecular target: SWI/SNF-related matrix-associated actin-dependent regulator of chromatin subfamily A member 4 (Homo sapiens) (UniProt P51532); assay: Inhibition of SMARCA4 (unknown origin) assessed as remaining activity
Sequence of SWI/SNF-related matrix-associated actin-dependent regulator of chromatin subfamily A member 4 (Homo sapiens) (P51532 whole entry): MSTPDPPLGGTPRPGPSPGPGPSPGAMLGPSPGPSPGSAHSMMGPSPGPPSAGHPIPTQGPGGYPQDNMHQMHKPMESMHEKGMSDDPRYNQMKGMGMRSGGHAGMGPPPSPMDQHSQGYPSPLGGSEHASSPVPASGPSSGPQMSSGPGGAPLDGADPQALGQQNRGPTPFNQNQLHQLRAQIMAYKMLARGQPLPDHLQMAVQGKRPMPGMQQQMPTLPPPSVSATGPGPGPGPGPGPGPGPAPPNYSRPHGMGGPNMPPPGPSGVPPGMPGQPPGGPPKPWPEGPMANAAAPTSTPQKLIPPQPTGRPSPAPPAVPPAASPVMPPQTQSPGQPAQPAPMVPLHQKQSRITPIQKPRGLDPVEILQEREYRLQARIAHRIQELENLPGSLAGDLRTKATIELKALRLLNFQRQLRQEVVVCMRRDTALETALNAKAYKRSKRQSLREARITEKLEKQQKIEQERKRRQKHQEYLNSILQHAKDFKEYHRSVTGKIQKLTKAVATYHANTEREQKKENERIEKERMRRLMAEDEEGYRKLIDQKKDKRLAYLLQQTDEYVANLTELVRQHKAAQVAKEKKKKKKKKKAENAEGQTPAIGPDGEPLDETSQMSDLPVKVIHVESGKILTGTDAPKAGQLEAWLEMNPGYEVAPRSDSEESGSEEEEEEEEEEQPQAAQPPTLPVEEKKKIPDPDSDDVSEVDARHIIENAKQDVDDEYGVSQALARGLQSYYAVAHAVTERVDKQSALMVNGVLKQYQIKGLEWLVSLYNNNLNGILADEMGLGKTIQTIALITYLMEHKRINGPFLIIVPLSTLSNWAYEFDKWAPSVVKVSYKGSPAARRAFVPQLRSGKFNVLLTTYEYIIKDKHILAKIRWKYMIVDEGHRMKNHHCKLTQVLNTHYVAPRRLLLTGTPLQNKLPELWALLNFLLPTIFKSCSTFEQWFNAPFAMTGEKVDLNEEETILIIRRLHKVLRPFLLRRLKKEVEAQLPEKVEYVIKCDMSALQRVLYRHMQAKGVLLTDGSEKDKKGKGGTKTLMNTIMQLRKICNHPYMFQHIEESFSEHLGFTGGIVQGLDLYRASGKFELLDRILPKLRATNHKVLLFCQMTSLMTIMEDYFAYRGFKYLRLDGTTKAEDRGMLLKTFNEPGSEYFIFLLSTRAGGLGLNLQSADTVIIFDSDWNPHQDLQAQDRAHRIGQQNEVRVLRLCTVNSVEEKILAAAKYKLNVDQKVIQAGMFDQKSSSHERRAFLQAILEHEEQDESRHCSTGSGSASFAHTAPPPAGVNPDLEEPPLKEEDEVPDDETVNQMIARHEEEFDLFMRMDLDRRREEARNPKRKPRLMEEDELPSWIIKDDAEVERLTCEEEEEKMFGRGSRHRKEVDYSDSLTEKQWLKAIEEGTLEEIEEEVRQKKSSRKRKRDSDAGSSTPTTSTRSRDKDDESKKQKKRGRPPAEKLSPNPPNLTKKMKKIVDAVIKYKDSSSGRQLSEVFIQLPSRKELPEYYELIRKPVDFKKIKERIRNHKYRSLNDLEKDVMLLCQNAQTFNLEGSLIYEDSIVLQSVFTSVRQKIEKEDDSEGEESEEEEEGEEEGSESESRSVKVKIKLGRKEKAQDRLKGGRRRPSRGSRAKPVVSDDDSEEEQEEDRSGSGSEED

[19] = molecular target: Transcription initiation factor TFIID subunit 1 (Homo sapiens) (UniProt P21675); assay: Inhibition of TAF1 BD2 (unknown origin) assessed as remaining activity
[20] = molecular target: Transcription initiation factor TFIID subunit 1-like (Homo sapiens) (UniProt Q8IZX4); assay: Inhibition of TAF1L BD2 (unknown origin) assessed as remaining activity
[21] = molecular target: Transcription intermediary factor 1-alpha (Homo sapiens) (UniProt O15164); assay: Inhibition of TRIM24 (unknown origin) assessed as remaining activity
[22] = molecular target: E3 ubiquitin-protein ligase TRIM33 (Homo sapiens) (UniProt Q9UPN9); assay: Inhibition of TRIM33 (unknown origin) assessed as remaining activity
[23] = molecular target: Bromodomain and WD repeat-containing protein 1 (Homo sapiens) (UniProt Q9NSI6); assay: Inhibition of WDR9 BD2 (unknown origin) assessed as remaining activity
[24] = molecular target: Bromodomain-containing protein 7 (Homo sapiens) (UniProt Q9NPI1); assay: Inhibition of BRD7 (unknown origin) assessed as remaining activity
[25] = molecular target: Bromodomain-containing protein 9 (Homo sapiens) (UniProt Q9H8M2); assay: Inhibition of BRD9 (unknown origin) assessed as remaining activity
[26] = molecular target: Bromodomain testis-specific protein (Homo sapiens) (UniProt Q58F21); assay: Inhibition of BRDT BD1 (unknown origin) assessed as remaining activity
[27] = molecular target: Bromodomain testis-specific protein (Homo sapiens) (UniProt Q58F21); assay: Inhibition of BRDT BD2 (unknown origin) assessed as remaining activity
Peregrin (Homo sapiens) = Peregrin (Homo sapiens) (UniProt P55201); assay: Inhibition of BRPF1 (unknown origin) assessed as remaining activity
[28] = molecular target: Bromodomain and PHD finger-containing protein 3 (Homo sapiens) (UniProt Q9ULD4); assay: Inhibition of BRPF3 (unknown origin) assessed as remaining activity
[29] = molecular target: Chromatin remodeling regulator CECR2 (Homo sapiens) (UniProt Q9BXF3); assay: Inhibition of CECR2 (unknown origin) assessed as remaining activity
[30] = molecular target: CREB-binding protein (Homo sapiens) (UniProt Q92793); assay: Inhibition of CREBBP (unknown origin) assessed as remaining activity
[31] = molecular target: Histone acetyltransferase p300 (Homo sapiens) (UniProt Q09472); assay: Inhibition of EP300 (unknown origin) assessed as remaining activity
[32] = molecular target: Nucleosome-remodeling factor subunit BPTF (Homo sapiens) (UniProt Q12830); assay: Inhibition of FALZ (unknown origin) assessed as remaining activity
[33] = molecular target: Histone acetyltransferase KAT2A (Homo sapiens) (UniProt Q92830); assay: Inhibition of GCN5L2 (unknown origin) assessed as remaining activity
[34] = Microsomal stability in mouse liver microsomes assessed as parent compound remaining measured after 30 mins; format: ADME, Microsome; settings: read-out: Stability
[35] = Microsomal stability in human liver microsomes assessed as parent compound remaining measured after 30 mins; format: ADME, Microsome; settings: read-out: Stability

Structure (SMILES): CN(C)S(=O)(=O)Nc1ccc(N2C3CCC2COC3)nc1Nc1ccc2[nH]nnc2c1
IC50 [1]: 4.45 µM
IC50 [2]: 4.38 µM

Structure (SMILES): CC(C)Nc1ccc([N+](=O)[O-])c(Nc2ccc3c(c2)nnn3S(=O)(=O)c2ccccc2)n1
IC50 [1]: 3.1 µM
IC50 [2]: 4.47 µM

Structure (SMILES): CN(C)S(=O)(=O)Nc1ccc(NCCO)nc1Nc1ccc2[nH]nnc2c1
IC50 [1]: 5.7 µM
IC50 [2]: 8.25 µM

Structure (SMILES): CN(C)S(=O)(=O)Nc1ccc(NCCc2ccccc2)nc1Nc1ccc2[nH]nnc2c1
IC50 [1]: 5.25 µM

Structure (SMILES): CC(C)Nc1ccc(NS(=O)(=O)C2CCCCC2)c(Nc2ccc3[nH]nnc3c2)n1
IC50 [1]: 0.66 µM
IC50 [2]: 0.9 µM

Structure (SMILES): CN(C)S(=O)(=O)Nc1ccc(NC2COC2)nc1Nc1ccc2[nH]nnc2c1
IC50 [1]: 6.85 µM
IC50 [2]: 9.95 µM

Structure (SMILES): CC(C)Nc1ccc(NS(=O)(=O)c2cccs2)c(Nc2ccc3[nH]nnc3c2)n1
IC50 [1]: 0.77 µM
IC50 [2]: 0.78 µM

Structure (SMILES): CC(C)Nc1ccc(NS(=O)(=O)c2ccccc2C(F)(F)F)c(Nc2ccc3[nH]nnc3c2)n1
IC50 [1]: 1.61 µM
IC50 [2]: 1.57 µM

Structure (SMILES): CN(C)S(=O)(=O)Nc1ccc(NCCCN2CCOCC2)nc1Nc1ccc2[nH]nnc2c1
IC50 [1]: 5.41 µM
IC50 [2]: 15 µM

Structure (SMILES): COC(=O)NS(=O)(=O)Nc1ccc(NC(C)C)nc1Nc1ccc2[nH]nnc2c1
IC50 [1]: 1.18 µM
IC50 [2]: 1.06 µM

Results, then the compound that gave them:

IC50 [1]: 0.62 µM
IC50 [2]: 0.9 µM
Structure (SMILES): CC(C)Nc1ccc(NS(=O)(=O)c2c(F)cc(F)cc2F)c(Nc2ccc3[nH]nnc3c2)n1

IC50 [1]: 8.83 µM
Structure (SMILES): CN(C)S(=O)(=O)Nc1ccc(NCC(c2ccccc2)c2ccccc2)nc1Nc1ccc2[nH]nnc2c1

IC50 [1]: 4.27 µM
IC50 [2]: 10.2 µM
Structure (SMILES): CC(C)Nc1ccc([N+](=O)[O-])c(Nc2ccc3c(c2)nnn3C(=O)c2ccccc2)n1

IC50 [1]: 7.97 µM
IC50 [2]: 11.5 µM
Structure (SMILES): CN(C)S(=O)(=O)Nc1ccc(NCCN2CCOCC2)nc1Nc1ccc2[nH]nnc2c1

IC50 [1]: 3.22 µM
IC50 [2]: 6.9 µM
Structure (SMILES): C[C@H](Nc1ccc(NS(=O)(=O)N(C)C)c(Nc2ccc3[nH]nnc3c2)n1)[C@@H](c1ccccc1)N(C)C

IC50 [1]: 2.47 µM
IC50 [2]: 2.86 µM
Structure (SMILES): CC(C)Nc1ccc(NS(C)(=O)=O)c(Nc2ccc3[nH]nnc3c2)n1

IC50 [1]: 1.42 µM
IC50 [2]: 1.66 µM
Structure (SMILES): CC(C)Nc1ccc(NS(=O)(=O)c2ccccc2F)c(Nc2ccc3[nH]nnc3c2)n1

IC50 [1]: 1.12 µM
IC50 [2]: 1.24 µM
Structure (SMILES): CC(C)Nc1ccc(NS(=O)(=O)C(C)C)c(Nc2ccc3[nH]nnc3c2)n1

IC50 [1]: 20.1 µM
IC50 [2]: 10.4 µM
Structure (SMILES): CN(C)S(=O)(=O)Nc1ccc(N2CCS(=O)(=O)CC2)nc1Nc1ccc2[nH]nnc2c1

IC50 [1]: 9.8 µM
IC50 [2]: 10 µM
Structure (SMILES): CC(C)Nc1ccc([N+](=O)[O-])c(Nc2ccc3[nH]nnc3c2)n1

Activity [3]: 88%
Activity [4]: 73%
Activity [5]: 44%
IC50 [1]: 2.86 µM
IC50 [2]: 8.01 µM
Activity [6]: 66%
Activity [7]: 55%
Activity [8]: 82%
Activity [9]: 84%
Activity [10]: 42%
Activity [11]: 0%
Activity [12]: 19%
Activity [13]: 0.95%
Activity [14]: 35%
Activity [15]: 0.45%
Activity [16]: 22%
Activity [17]: 62%
Activity [18]: 75%
Activity [19]: 31%
Activity [20]: 86%
Activity [21]: 98%
Activity [22]: 92%
Activity [23]: 44%
Activity [24]: 67%
Activity [25]: 64%
Activity [26]: 2.7%
Activity [27]: 32%
Activity (Peregrin (Homo sapiens)): 78%
Activity [28]: 71%
Activity [29]: 73%
Activity [30]: 88%
Activity [31]: 82%
Activity [32]: 77%
Activity [33]: 88%
remaining at 0.5 h [34]: 28%
remaining at 0.5 h [35]: 32.9%
Structure (SMILES): COCC(C)Nc1ccc(NS(=O)(=O)N(C)C)c(Nc2ccc3[nH]nnc3c2)n1 (stereo not drawn)

IC50 [1]: 6.89 µM
IC50 [2]: 10.2 µM
Structure (SMILES): CC(C)Nc1ccc(NC(=O)Nc2ccccc2)c(Nc2ccc3[nH]nnc3c2)n1

IC50 [1]: 0.24 µM
IC50 [2]: 0.3 µM
Structure (SMILES): CC(C)Nc1ccc(NS(=O)(=O)c2ccc(F)cc2)c(Nc2ccc3[nH]nnc3c2)n1
